Test results as given in patent US8436024B2, “2-pyridone compounds” (Astrazeneca AB, priority 2009, dated 2013).

Legend:
[1] = target: T1, Human Neutrophil Elastase (HNE) (Homo sapiens, UniProt P08246); assay: Human Neutrophil Elastase Quenched-FRET Assay; type: biochemical; details: geomean of measured IC50 values; HNE 0.17 nM, substrate MeOSuc-AAPV-AMC 100 μM, 90 min at room temperature; read-out: Inhibition of Human Neutrophil Elastase IC50
T1 sequence (P08246 30-267): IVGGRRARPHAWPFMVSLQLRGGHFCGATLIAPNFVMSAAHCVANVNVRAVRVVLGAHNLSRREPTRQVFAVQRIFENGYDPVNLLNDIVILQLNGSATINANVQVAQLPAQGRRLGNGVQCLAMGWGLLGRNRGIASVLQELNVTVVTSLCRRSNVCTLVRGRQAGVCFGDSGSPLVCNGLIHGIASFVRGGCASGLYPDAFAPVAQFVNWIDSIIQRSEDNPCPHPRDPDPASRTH
Procedure: Human Neutrophil Elastase Quenched-FRET Assay The assay uses Human Neutrophil Elastase (HNE) purified from serum (Calbiochem art. 324681; Ref Baugh, R. J. et al., 1976, Biochemistry. 15, 836-841). HNE was stored in 50 mM sodium acetate (NaOAc), 500 mM sodium chloride (NaCl), pH 5.5 with added 50% glycerol at −20° C. The protease substrate used was Elastase Substrate V Fluorogenic, MeOSuc-AAPV-AMC (Calbiochem art. 324740; Ref Castillo, M. J. et al., 1979, Anal. Biochem. 99, 53-64). The substrate was stored in dimethyl sulphoxide (DMSO) at −20° C. The assay additions were as follows: Test compounds and controls were added to black 384-well flat-bottom plates (Greiner 781076), 0.2 μL in 100% DMSO, followed by 10 μL HNE in assay buffer with 0.01% Triton (trade mark) X-100 detergent. The assay buffer constitution was: 100 mM Tris(hydroxymethyl)aminomethane (TRIS) (pH 7.5) and 500 mM NaCl. The enzyme and the compounds were incubated at room temperature for 15 minutes. Then 10 μL substrate in assay buffer was added. The assay was incubated for 90 minutes at room temperature. The concentrations of HNE enzyme and substrate during the incubation were 0.17 nM and 100 μM, respectively. The assay was then stopped by adding 20 μl stop solution (140 mM acetic acid, 200 mM sodium monochloroacetate, 60 mM sodium acetate, pH 4.3). Fluorescence was measured on a Wallac EnVision 2102 Multilabel Reader instrument at settings: Excitation 380 nm, Emission 460 nm. IC50 values were determined using Xlfit curve fitting using model 203. […] Specimen results are shown in the following Table in which the IC50 value represents the geomean of the IC50 values measured for a particular compound and “n” refers to the number of times the compound was tested: […]

[2] = Humidity interaction (hygroscopicity determination) by Gravimetrical Vapour Sorption; type: physicochemical; details: for hygroscopicity: relative change in weight between 0% RH and 80% RH, second cycle, benzenesulfonate
Procedure: Run time was 6.2 minutes; post time was 2.3 min; and detection was at 235 nm. • (v) In general, the course of reactions was followed by TLC and reaction times are given for illustration only. • (vi) Yields are given for illustration only and are not necessarily those which can be obtained by diligent process development; preparations were repeated if more material was required. • (vii) Chemical symbols have their usual meanings; SI units and symbols are used. • (viii) Solvent ratios are given in volume: volume (v/v) terms. • (ix) Mass spectra (MS) (loop) were recorded on a Micromass Platform LC equipped with HP 1100 detector; unless otherwise stated the mass ion quoted is (MH^+). • (x) X-ray Powder Diffraction patterns were collected on a PANalytical X′Pert PRO MPD theta-theta system, equipped with a focusing beam Johansson monochromator and an X′Celerator detector, using CuKα1 radiation (1.5406 Å, 45 kV, 40 mA). The diffraction pattern was collected between 2 and 40 °2θ in a continuous scan mode. The scan speed was 0.86°/min. with an increment of 0.016°. Samples were mounted on single silicon crystal wafer mounts. • (xi) Humidity Interaction (hygroscopicity determination): The gravimetric responses of test samples to changes in humidity were investigated using a TGA 5000 (TA Instruments) Gravimetrical Vapour Sorption (GVS). The relative humidity (RH) was raised in steps of 10% to 90% RH and lowered back to 0% RH in two cycles. Each level of RH was held until the equilibrium condition (sample weight change<0.005 wt % per 10 minutes) was reached. 3-5 mg of the test sample was placed in the cup and evaluated. The hygroscopicity was calculated as the relative change in weight of the sample between 0% RH at the start of the second cycle and 80% RH during the increase of humidity in the second cycle. […]

| SMILES | IC50 [1] [nM] | also measured |
| --- | --- | --- |
| Cc1c(-c2ccnn2-c2ccc(C#N)cc2)cc(C(=O)NCCC[N+](C)(C)C)c(=O)n1-c1cccc(C(F)(F)F)c1.O=S(=O)([O-])c1ccccc1 [Example 10, 3-(5-(1-(4-cyanophenyl)-1H-pyrazol-5-yl)-6-methyl-2-oxo-1-(3-(trifluoromethyl)phenyl)-1,2-dihydropyridine-3-carboxamido)-N,N,N-trimethylpropan-1-aminium benzenesulfonate] | – | hygroscopicity (in words) ([2]; description of the crystalline modification): low hygroscopicity; hygroscopicity ([2]; listed as Form B): 0.4 % (w/w) |
| Cc1c(-c2ccnn2-c2ccc(C#N)cc2)nc(C(=O)NCCC[N+](C)(C)C)c(=O)n1-c1cccc(C(F)(F)F)c1 [Example 6, 3-[({6-[1-(4-cyanophenyl)-1H-pyrazol-5-yl]-5-methyl-3-oxo-4-[3-(trifluoromethyl)phenyl]-3,4-dihydropyrazin-2-yl}carbonyl)amino]-N,N,N-trimethylpropan-1-aminium iodide] | 3.48 | – |
| Cc1c(-c2ccnn2-c2ccc(C#N)cc2)cc(C(=O)NCCC[N+]2(C)CCCC2)c(=O)n1-c1cccc(C(F)(F)F)c1 [Example 5, 1-{3-[({5-[1-(4-cyanophenyl)-1H-pyrazol-5-yl]-6-methyl-2-oxo-1-[3-(trifluoromethyl)phenyl]-1,2-dihydropyridin-3-yl}carbonyl)amino]propyl}-1-methylpyrrolidinium iodide] | 0.971 | – |
| Cc1c(-c2ccnn2-c2ccc(C#N)cc2)cc(C(=O)NCCC[N+](C)(C)C)c(=O)n1-c1cccc(C(F)(F)F)c1.O=S(=O)([O-])c1ccccc1 [Example 9, 3-(5-(1-(4-cyanophenyl)-1H-pyrazol-5-yl)-6-methyl-2-oxo-1-(3-(trifluoromethyl)phenyl)-1,2-dihydropyridine-3-carboxamido)-N,N,N-trimethylpropan-1-aminium benzenesulfonate] | – | hygroscopicity ([2]; listed as Form A): 0.8 % (w/w) |
| Cc1c(-c2ccnn2-c2ccc(C#N)cc2)cc(C(=O)NCCC[N+](C)(C)C)c(=O)n1-c1cccc(C(F)(F)F)c1 [Example 9a, 3-(5-(1-(4-cyanophenyl)-1H-pyrazol-5-yl)-6-methyl-2-oxo-1-(3-(trifluoromethyl)phenyl)-1,2-dihydropyridine-3-carboxamido)-N,N,N-trimethylpropan-1-aminium benzenesulfonate] | 1.1 | – |
| Cc1c(-c2ccnn2-c2ccc(C#N)cc2)cc(C(=O)NCC[N+](C)(C)C)c(=O)n1-c1cccc(C(F)(F)F)c1 [Example 3, 2-[({5-[1-(4-cyanophenyl)-1H-pyrazol-5-yl]-6-methyl-2-oxo-1-[3-(trifluoromethyl)phenyl]-1,2-dihydropyridin-3-yl}carbonyl)amino]-N,N,N-trimethylethanaminium acetate] | 1.05 | – |

Further lines, with some results ahead:

| IC50 [1] [nM] | SMILES | also measured |
| --- | --- | --- |
| 0.934 | Cc1c(-c2ccnn2-c2ccc(C#N)cc2)cc(C(=O)NCCCC[N+](C)(C)C)c(=O)n1-c1cccc(C(F)(F)F)c1 [Example 4, 4-[({5-[1-(4-cyanophenyl)-1H-pyrazol-5-yl]-6-methyl-2-oxo-1-[3-(trifluoromethyl)phenyl]-1,2-dihydropyridin-3-yl}carbonyl)amino]-N,N,N-trimethylbutan-1-aminium iodide] | – |
| 0.949 | Cc1c(-c2ccnn2-c2ccc(C#N)cc2)cc(C(=O)NCC[N+]2(C)CCCC2)c(=O)n1-c1cccc(C(F)(F)F)c1 [Example 1, 1-{2-[({5-[1-(4-cyanophenyl)-1H-pyrazol-5-yl]-6-methyl-2-oxo-1-[3-(trifluoromethyl)phenyl]-1,2-dihydropyridin-3-yl}carbonyl)amino]ethyl}-1-methylpyrrolidinium acetate] | – |
| 0.57 | Cc1c(-c2ccnn2-c2ccc(C#N)cc2)cc(C(=O)NCCC[N+](C)(C)C)c(=O)n1-c1cccc(C(F)(F)F)c1 [Example 7, 3-(5-(1-(4-cyanophenyl)-1H-pyrazol-5-yl)-6-methyl-2-oxo-1-(3-(trifluoromethyl)phenyl)-1,2-dihydropyridine-3-carboxamido)-N,N,N-trimethylpropan-1-aminium bromide] | – |
| 0.771 | Cc1c(-c2ccnn2-c2ccc(C#N)cc2)cc(C(=O)NCCCC[N+]2(C)CCCC2)c(=O)n1-c1cccc(C(F)(F)F)c1 [Example 2, 1-{-4-[({5-[1-(4-cyanophenyl)-1H-pyrazol-5-yl]-6-methyl-2-oxo-1-[3-(trifluoromethyl)phenyl]-1,2-dihydropyridin-3-yl}carbonyl)amino]butyl}-1-methylpyrrolidinium acetate] | – |
